Read-outs that look alike come from different tables or passages of the source. Each block holds one compound with its values, some of them ahead of it.
How the values were obtained:
Format in all cases: cell-based
[1] = test system: RKO (human colon adenocarcinoma cell line); experiment: MTT assay, RKO; conditions: 72 h
Protocol: Compounds are tested for their ability to inhibit cell proliferation and cell viability. The metabolic conversion of 3-(4,5-dimethylthiazol-2-yl)-2,5-diphenyltetrazolium bromide (MTT, Sigma #M2128) to a reduced form is a commonly used measure of cellular viability. Following is the procedure: Cells are maintained in 75 cm^2 tissue culture flasks until ready for use. The cells are grown and plated for the assay in Dulbecco's modified Eagle's media (DMEM) containing 10% fetal bovine serum. For example, the following cell lines can be used: a) human foreskin fibroblasts (HFF); b) HT29 (human colon carcinoma cell line); c) MDA-MB468 (human breast carcinoma cell line); d) RKO (human colon adenocarcinoma cell line); e) SW620 (human colon carcinoma cell line); f A549 (human lung carcinoma cell line); and g) MIA PACA (human pancreatic carcinoma cell line). Cells are maintained at 37° C. in 10% CO2, 90% humidified air. Cells are plated in 96-well tissue culture plates at the densities listed below. 100 μL of cell suspension is added to each well of the 96-well plate except the top row of the plate which contains no cells and serves as a reference for the spectrophotometer. [table] Cells are incubated overnight in DMEM containing 10% fetal bovine serum at 37° C. in 10% CO2, 90% humidified air prior to dosing. […] Compounds with solubilities of less than 30 μM are dosed at the highest soluble concentration. Stock solutions of compounds are made in 100% dimethyl sulfoxide (DMSO). Stock solutions are diluted in DMEM containing 100 μg/ml gentamicin and 0.3 to 0.6% DMSO at the twice the highest concentration to be placed on the cells. If compounds have been dissolved in DMSO the final concentration of DMSO on the cells is kept below 0.3%. Three-fold serial dilutions are performed on each compound to prepare 10 concentrations of the compound for dosing. 100 μl of diluted compound is added to the 100 μl of media currently on the dish. […] Quantitation of metabolic reduction of MTT in each plate is performed by reading optical density at 570 nm wavelength on a Molecular Devices UVmax microplate reader. […]

[2] = test system: human diploid fibroblasts (HDF-3); experiment: G1-S progression assay (BrdU incorporation); conditions: read-out: G1/S Chkpt (IC50)
Protocol: This assay is designed to determine the ability of compounds to inhibit progression of cells from G1 into S-phase. […] The protocol is as follows: • (1) Grow human diploid fibroblasts (HDF-3) in 100 mm tissue culture dish to confluency. (2) Plate 6–7×10^3 cells/well in a 96 well plate in 100 μl of DMEM. […] Dilute compound in DMEM containing DMSO and add 100 μl to each well so that the DMSO conc. is 0.6–0.8% in 200 μl final volume. (4) Two h after addition of compound, add 20 μl of 100 μM Br dU (final conc. 10 μM) Make 100 μM solution in DMEM from 10 mM stock solution. (5) After 4 h, add 200 μl PBS to each well and remove the contents of the wells by inverting the plate and soaking on to the paper towel. Repeat the washing step three times, with 400 ul PBS each time. (6) Fix the cells and denature the DNA by adding 200 μl fixation/denaturation solution to each well for 30–40 min. (7) Remove the fixation/denaturation solution by tapping the plate on the paper towel and add 75 μl of anti BrdU peroxidase antibody to each well. (dilute the antibody to 0.1 U/mL from 15 U/mL stock in PBS containing 1% BSA, Fraction V). Incubate the plate O/N at 4° C. (8) Remove the antibody solution and wash wells four times with 400 μl of PBS. Let the wash solution stay for 3–4 min during each wash. (9) Drain the wells and add 100 μl of chemiluminiscence Elisa reagent (Prepare the reagent 15–20 min before use to bring it to rt by mixing 100 parts of reagent A with 1 part of reagent B). (10) Read the plate in a luminometer. Take 2–3 readings within 6–7 min. Perform the following controls: [table] Deoxybromouridine (BrdU), anti BrdU peroxidase antibodies, fixation/denaturation solution, chemiluminiscence reagent and BSA Fraction V, were obtained from Boehringer Mannheim. The 96-well white plate with clear bottom were purchased from Corning Costar Corporation. Dulbecco's Modified Eagle Medium containing high glucose, L-glutamine and pyridoxine HCl was obtained from GIBCO BRL.

[3] = test system: HDF normal diploid fibroblast cells; experiment: MTT assay, HDF; conditions: 72 h
Protocol: Compounds are tested for their ability to inhibit cell proliferation and cell viability. The metabolic conversion of 3-(4,5-dimethylthiazol-2-yl)-2,5-diphenyltetrazolium bromide (MTT, Sigma #M2128) to a reduced form is a commonly used measure of cellular viability. Following is the procedure: Cells are maintained in 75 cm^2 tissue culture flasks until ready for use. The cells are grown and plated for the assay in Dulbecco's modified Eagle's media (DMEM) containing 10% fetal bovine serum. For example, the following cell lines can be used: a) human foreskin fibroblasts (HFF); b) HT29 (human colon carcinoma cell line); c) MDA-MB468 (human breast carcinoma cell line); d) RKO (human colon adenocarcinoma cell line); e) SW620 (human colon carcinoma cell line); f A549 (human lung carcinoma cell line); and g) MIA PACA (human pancreatic carcinoma cell line). Cells are maintained at 37° C. in 10% CO2, 90% humidified air. Cells are plated in 96-well tissue culture plates at the densities listed below. 100 μL of cell suspension is added to each well of the 96-well plate except the top row of the plate which contains no cells and serves as a reference for the spectrophotometer. [table] Cells are incubated overnight in DMEM containing 10% fetal bovine serum at 37° C. in 10% CO2, 90% humidified air prior to dosing. […] Compounds with solubilities of less than 30 μM are dosed at the highest soluble concentration. Stock solutions of compounds are made in 100% dimethyl sulfoxide (DMSO). Stock solutions are diluted in DMEM containing 100 μg/ml gentamicin and 0.3 to 0.6% DMSO at the twice the highest concentration to be placed on the cells. If compounds have been dissolved in DMSO the final concentration of DMSO on the cells is kept below 0.3%. Three-fold serial dilutions are performed on each compound to prepare 10 concentrations of the compound for dosing. 100 μl of diluted compound is added to the 100 μl of media currently on the dish. For each concentration of compound, 2–4 replicate wells are prepared. Cells are returned to incubator and allowed to proliferate in the presence of compound for 72 h before addition of MTT. […] After 4 h incubation the media, compound and MTT mixture is aspirated from the plates and 100 μl of 100% DMSO is added to each well in addition to 25 μl of Sorenson's Buffer (0.1M glycine, 0.1M NaCl, pH 10.5). Quantitation of metabolic reduction of MTT in each plate is performed by reading optical density at 570 nm wavelength on a Molecular Devices UVmax microplate reader. […] HDF are normal diploid fibroblast cells. RKO are colon adenocarcinoma cells and MES/SA are ovarian carcinoma cells.

IC50 ([1]; Homo sapiens): 1.1 to 5 µM
SMILES: COC(=O)c1ccc2c(c1)/C(=C/Nc1ccc(S(N)(=O)=O)cc1)C(=O)N2 [Example 27]
IC50 ([2]; Homo sapiens, Fibroblast): 1.1 to 5 µM | IC50 ([3]; Fibroblast): 1.1 to 5 µM

SMILES: NS(=O)(=O)c1ccc(NN=C2C(=O)Nc3ccc(-c4cnco4)cc32)cc1 [Example 36]
IC50 ([1]; Homo sapiens): 0.6 to 1 µM | IC50 ([2]; Homo sapiens, Fibroblast): 0.6 to 1 µM | IC50 ([3]; Fibroblast): 1.1 to 5 µM

SMILES: O=C1Nc2ccc3ncsc3c2C1=CNc1ccc(S(=O)(=O)NCc2ccncc2)cc1 [Example 104, 4-[(7-Oxo-6,7-dihydro-1-thia-3,6-diaza-as-indacen-8-ylidenemethyl)amino]-N-pyridinyl-4-yl-methyl benzenesulfonamide]
IC50 [1]: 1.1 to 5 µM | IC50 [2]: 1.1 to 5 µM | IC50 [3]: 1.1 to 5 µM

Reference: patent US7105529B2, “Substituted oxindole derivatives as protein tyrosine and as protein serine/threonine kinase inhibitors and compositions and methods of treating chemotherapy and radiation therapy side effects” (SmithKline Beecham Corporation, priority 1997, dated 2006)
